Results taken from the NIST ThermoML archive (doi:10.1021/je400539h).
Several values for one entry are separate records, joined by “and”; a condition that tells them apart may be missing. Identical values can stand only once.

What was measured:
[1] = 101 kPa, Liquid
[2] = xn = mol fraction of the nth substance listed; settings: 101 kPa, Liquid

CCCCCCOC(C)=O [hexyl ethanoate]
[1]
Settings | mass density [kg/m3] | speed of sound [m/s] | viscosity
298.15 K | 868.3 | 1236 | 1.071 mPa·s
303.15 K | 863.9 | 1216 | 0.982 mPa·s
308.15 K | 859.8 | 1196 | 0.898 mPa·s and 0.899 mPa·s
313.15 K | 855 | 1176 | 0.836 mPa·s

C=COCCCC [1-(ethenyloxy)butane]
[1]
Settings | mass density [kg/m3] | speed of sound [m/s] | viscosity [mPa·s]
298.15 K | 780.2 | 1096 | 0.4
303.15 K | 774.1 | 1084 | 0.387
308.15 K | 768.2 | 1072 | 0.365
313.15 K | 763.3 | 1060 | 0.354

C1COCCO1 [1,4-dioxane]
[1]
Settings | mass density [kg/m3] | speed of sound [m/s] | viscosity [mPa·s]
298.15 K | 1028.2 | 1328 | 1.159
303.15 K | 1022.7 | 1320 | 1.087
308.15 K | 1017.4 | 1312 | 1.013
313.15 K | 1011.1 | 1304 | 0.934

C1CCOC1 [tetrahydrofuran]
[1]
Settings | mass density [kg/m3] | speed of sound [m/s] | viscosity [mPa·s]
298.15 K | 881.5 | 1268 | 0.45
303.15 K | 878.7 | 1248 | 0.439
308.15 K | 873 | 1228 | 0.429
313.15 K | 866.9 | 1212 | 0.404

COc1ccccc1 [anisole]
[1]
Settings | mass density [kg/m3] | speed of sound [m/s] | viscosity [mPa·s]
298.15 K | 993.6 | 1396 | 0.97
303.15 K | 989.4 | 1380 | 0.917
308.15 K | 984.6 | 1364 | 0.863
313.15 K | 980 | 1348 | 0.803

C=COCCCC [1-(ethenyloxy)butane] + CCCCCCOC(C)=O
[2]
Settings | mass density [kg/m3] | speed of sound [m/s] | viscosity [mPa·s]
298.15 K, x2 = 0 | 780.2 | 1096 | 0.4
298.15 K, x2 = 0.0806 | 790.9 | 1100 | 0.44
298.15 K, x2 = 0.1668 | 801.3 | 1104 | 0.486
298.15 K, x2 = 0.2521 | 810.8 | 1112 | 0.538
298.15 K, x2 = 0.3443 | 820.3 | 1120 | 0.596
298.15 K, x2 = 0.4384 | 829.2 | 1128 | 0.657
298.15 K, x2 = 0.5392 | 838.1 | 1144 | 0.726
298.15 K, x2 = 0.644 | 846.6 | 1160 | 0.798
298.15 K, x2 = 0.7555 | 854.7 | 1180 | 0.879
298.15 K, x2 = 0.8741 | 862.1 | 1204 | 0.965
303.15 K, x2 = 0 | 774.1 | 1084 | 0.387
303.15 K, x2 = 0.0806 | 784.6 | 1088 | 0.423
303.15 K, x2 = 0.1668 | 795.1 | 1088 | 0.465
303.15 K, x2 = 0.2521 | 804.8 | 1096 | 0.508
303.15 K, x2 = 0.3443 | 814.5 | 1104 | 0.559
303.15 K, x2 = 0.4384 | 823.7 | 1112 | 0.615
303.15 K, x2 = 0.5392 | 832.8 | 1124 | 0.675
303.15 K, x2 = 0.644 | 841.3 | 1140 | 0.739
303.15 K, x2 = 0.7555 | 849.5 | 1160 | 0.812
303.15 K, x2 = 0.8741 | 857.1 | 1184 | 0.891
308.15 K, x2 = 0 | 768.2 | 1072 | 0.365
308.15 K, x2 = 0.0806 | 778.6 | 1072 | 0.398
308.15 K, x2 = 0.1668 | 789.1 | 1072 | 0.434
308.15 K, x2 = 0.2521 | 798.8 | 1076 | 0.474
308.15 K, x2 = 0.3443 | 808.7 | 1084 | 0.52
308.15 K, x2 = 0.4384 | 818.1 | 1092 | 0.567
308.15 K, x2 = 0.5392 | 827.4 | 1104 | 0.622
308.15 K, x2 = 0.644 | 836.3 | 1120 | 0.681
308.15 K, x2 = 0.7555 | 844.8 | 1140 | 0.745
308.15 K, x2 = 0.8741 | 852.7 | 1164 | 0.817
313.15 K, x2 = 0 | 763.3 | 1060 | 0.354
313.15 K, x2 = 0.0806 | 773.6 | 1056 | 0.385
313.15 K, x2 = 0.1668 | 784 | 1056 | 0.418
313.15 K, x2 = 0.2521 | 793.7 | 1060 | 0.454
313.15 K, x2 = 0.3443 | 803.6 | 1064 | 0.496
313.15 K, x2 = 0.4384 | 813 | 1072 | 0.538
313.15 K, x2 = 0.5392 | 822.3 | 1084 | 0.588
313.15 K, x2 = 0.644 | 831.2 | 1100 | 0.641
313.15 K, x2 = 0.7555 | 839.7 | 1120 | 0.7
313.15 K, x2 = 0.8741 | 847.7 | 1144 | 0.763
